Legend:
Type in all cases: in vivo
[1] = test system: mouse embryonic fibroblasts 3T3; experiment: Local lesion inhibition in 3T3 fibroblast nodule model in nude mice (Example 6, Table 9); settings: dosed twice at interval of 2 days, 150 μl/mouse/time, 7th day after final administration
Source text: (§1) V=0.5×a×b^2, wherein a and b represent the length and width of the local lesion, respectively; Volume of the local lesion (e.g. tumor):
(§2) Local lesion (e.g., tumor) proliferation rate (R)=TV/CV×100, wherein TV and CV are the local lesion volumes in the study group and negative control group, respectively;
(§3) The method for determining the effect of combined drug administration in animal experiments was Burgi method (Burgi Y. Pharmacology; Drug actions and reactions. Cancerres. 1978, 38(2), 284-285). The Burgi method was modified by Zhengjun JIN (Zhengjun JIN, Equal probability and curve and “Q50”, Journal of the Second Shanghai Medical College; 1981, 1, 75-86) with q calculated as: q=EA+B/(EA+EB−EA×EB). In the following examples of the present invention, the combinational pharmaceutical efficacies (drug efficacies) of drug A and drug B co-administration was determined by ratio q of actual pharmaceutical efficacy (drug efficacy)/theoretical pharmaceutical efficacy (drug efficacy) according to Zhengjun JIN method, as follows.
Nude mice were used as experimental subjects, and mouse embryonic fibroblasts 3T3 were used as modeling cells. 2×10^4 cells/mouse were injected into the right axilla subcutaneously for transplantation nodule modeling, and the average volume of tumor-like nodules in successfully modeled nude mice was 171.5 mm^3. The model animals were randomly divided into […], and the drugs were administered according to Table 9. Each group except for groups 21-24 were administered by intraperitoneal injection, intra-nodal injection. The drugs used in groups 21-24 were a composition of non-local administration dosage form (dosage form that a probiotic component and a co-administration substance could be administered separately). The administration route of series A was: intraperitoneal injection of probiotic component+intra-nodal injection of co-administration substance; and the administration route of series B was: intraperitoneal injection of co-administration substance+intra-nodal injection of probiotic component. Each group was dosed twice at an interval of 2 days, with an injection volume of 150 μl/mouse/time. On the 7th day after the final administration, the volume (V) of local lesions comprising fibroblasts was measured, and the relative local lesion inhibition rates (r′A, r′B) were calculated for series A and series B, respectively, as compared with the negative control group. Further, the actual drug efficacy/expected efficacy ratio q could also be calculated according to the therapeutic effect (local lesion inhibition rate).

[2] = test system: gastric tumor cells (BGC823); experiment: Tumor inhibition in BGC823 tumor-bearing nude mice (Example 5, Table 8); settings: intratumoral injection once, 150 μl/mouse, 7th day
Source text: as §3
Nude mice were used as experimental subjects, and gastric tumor cells (BGC823) were used as modeling cells, 1×10^5 cells/mouse were injected into the right axilla subcutaneously for transplantation tumor modeling, and the average tumor volume of successfully modeled nude mice was 164.4 mm^3. The model animals were randomly divided into 14 groups, and the drugs according to the pharmacological constitutions in Table 8 were administered via intratumoral injection. Each group was dosed once with an injection volume of 150 μl/mouse; wherein the pharmaceutical compositions of groups 5, 11 were semi-fluid, the pharmaceutical compositions of other groups are liquid. On the 7th day after drug administration, the animals were euthanized, and after dissection, the tumor tissue was taken out to determine the tumor weight, and the tumor inhibition rate (r) was calculated relative to the negative control group. Further, the actual efficacy/expected efficacy ratio q of a drug could also be calculated according to the therapeutic effect (tumor inhibition rate).

[3] = test system: human hepatoma cells (HepG2); experiment: Tumor inhibition in HepG2 tumor-bearing nude mice, probiotic component/methylene blue (Example 7, Table 11); settings: dosed twice, interval 7 days, 150 μl/mouse/time, 7th day after final administration, probiotic component = inactivated Saccharomyces cerevisiae
Source text: as §3
Nude mice were used as experimental subjects, and human hepatoma cells (HepG2) were used as modeling cells. […] The model animals were randomly divided into 13 groups, and the drugs were administered according to Table 11. […] Each group was dosed twice with an interval of 7 days, and the injection volume was 150 μl/mouse/time. On the 7th day after final administration, the animals were euthanized, and the tumor tissues were taken out after dissection to determine the tumor weight, and the tumor inhibition rate was calculated relative to the negative control group.

breast cancer 4T1 cells = experiment: Short-term tumor inhibition in 4T1 tumor-bearing BALB/c mice (Example 9, Table 14); settings: dosed twice, 7th day after final administration
Source text: as §3
BALB/c mice were used as experimental subjects, and breast cancer 4T1 cells were used as modeling cells. 0.5×10^6 cells/mouse were injected into the right axilla subcutaneously for transplantation tumor modeling, and the average tumor volume of successfully modeled nude mice was 160.1 mm^3. The model animals were randomly divided into 21 groups, and the drugs were administered by intravenous injection (series A) and intratumoral injection (series B) according to the drugs and doses in Table 14, respectively. All the drugs administered were aqueous liquids, which were formulated according to the method of Example 1. Each group was dosed twice. On the 7th day after final administration, the animals were euthanized, and the tumor tissues were taken out after dissection to determine the tumor weight, and the tumor inhibition rates rA and rB were calculated relative to the corresponding negative control groups in series A and series B.

[4] = test system: mouse breast cancer 4T1 cells; experiment: Middle-aged and elderly patient model, 4T1 tumors in eight-month-old mice, r′3d/r′21d (Example 14, Table 19); settings: single intratumoral injection, 50 l/mouse; for Tumor inhibition rate r′3: day 3 after administration; for Tumor inhibition rate r′21: day 21 after administration
Source text: as §1, §2, §3
Eight-month-old mice were used as experimental subjects in the middle-aged and elderly patient model, 0.5×10^5 mouse breast cancer 4T1 cells/mouse were injected into the right axilla subcutaneously for transplantation tumor modeling, and the mean tumor volume of successfully modeled nude mice was 117.3 mm^3. The model animals were randomly divided into 18 groups. Each group was administered once by intratumoral injection according to the drug grouping in Table 19 with an injection volume of 50 l/mouse. The local lesion volume (V) was measured on day 3 and day 21 after drug administration, and the tumor inhibition rates (r′3d, r′21d) were calculated at each of time points relative to the negative control group, and the results were shown in the following Table. The drugs to be administered were prepared according to the conventional preparation method for aqueous solution or according to the preparation method in Example 1. The actual/expected ratio q3d for short-term drug efficacy and the actual/expected ratio […] for medium- and long-term drug efficacy were calculated based on the drug efficacies (r′3d, r′21d) at different times (day 3, day 21), respectively.

Structure (SMILES)	V (x ± s), volume of local lesions, series B ([1]; intra-nodal injection)	V (x ± s), volume of local lesions, series A ([1]; intraperitoneal injection)	Tumor inhibition rate r [2]	Tumor weight (x ± s) [2]	Tumor inhibition rate [3]	Tumor weight (x ± s) [3]	Tumor weight (x ± s) ([3]; listed as 0.15% methylene blue)	Tumor inhibition rate ([3]; listed as 0.50% methylene blue)	Tumor weight (x ± s) ([3]; listed as 0.50% methylene blue)	Tumor inhibition rate ([3]; listed as 3% methylene blue)	Tumor weight (x ± s) ([3]; listed as 3% methylene blue)	tumor inhibition rate rA (breast cancer 4T1 cells; series A: intravenous injection)	tumor inhibition rate rB (breast cancer 4T1 cells; series B: intratumoral injection)	Tumor inhibition rate r′3 [4]	Tumor inhibition rate r′21 [4]
CN(C)c1ccc2nc3ccc(=[N+](C)C)cc-3sc2c1 [1% methylene blue, methylene blue]	1.020 ± 0.210 cm^3	1.288 ± 0.205 cm^3	12.5%	0.197 ± 0.062 g	26.4%	0.186 ± 0.096 g	0.227 ± 0.107 g	17.7%	0.208 ± 0.115 g	71.1%	0.073 ± 0.033 g	3.7%	13.4%		
OC[C@H]1OC(O)[C@H](O)[C@@H](O)[C@@H]1O (some centres unmarked) [30% glucose aqueous solution]														20.8%	8.2%
OC[C@H]1OC(O)[C@H](O)[C@@H](O)[C@@H]1O (some centres unmarked) [20% glucose aqueous solution]														3.1%	4.3%
